Assay results published in US20060270614A1, “Use of chalcones for the treatment of viral disorders” (priority 2005, published 2006).
Read-outs that look alike come from different tables or passages of the source.

System: HSV-1
Assay: HSV-1 assay: CPE inhibition in Vero cells, MTS dye uptake
Type: cell-based, herpes simplex virus-1
Settings: read-out: IC50 (inhibitory concentration at which the compound provides 50% CPE reduction)
Method: In vitro evaluation of anti-viral activity can be determined by plaque reduction as reported in J. Nat. Prod. (1990) 53, 340-344; or as described in Example 1. To pre-grown Vero cells (ATCC CCL-81 is added a virus suspension (ATCC VR-260) mixed with complete medium containing various concentrations of the test compound and the mixture is incubated until maximum cytopathic effect (CPE) is observed in the untreated virus control culture. The CPE inhibition is determined by adding a dye (MTS, (3-[4,5-dimethylthiazol-2-yl-5]-[3-carboxymethyoxyphenyl]-2-[4-sulfophenyl]-2H tetrazolium)) uptake procedure (Promega's Cell Titer Aqueous One Solution). This method measures cell viability and is based on the reduction of the tetrazolium-based MTS by mitochondrial enzymes of viable host cells to MTS formazan. The purple color of the MTS formazan is then measured spectrophotometrically. The optical density (OD) value of each culture is a function of the amount of formazan produced which is proportional to the number of viable cells.
Vero cells (ATCC CCL-81) are pregrown in 96-well tissue culture plates using Dulbecco's Modified Eagle's Medium (DMEM) supplemented with 10% heat-inactivated fetal bovine serum (FBS), L-Glutamine, penicillin, and streptomycin.
To each of the replicate cell cultures is added 50 μL of the test article solution and 50 μL of virus suspension (ATCC VR-260). The multiplicity of infection used is about 0.05 plaque-forming unit (PFU) per cell. Cell controls containing medium alone, virus-infected controls containing medium and virus, drug cytotoxicity controls containing medium and each drug concentration, reagent controls containing culture medium only (no cells), and the test article colorimetric controls containing the test article and medium (no cells) are run simultaneously with the test samples. The plates are incubated at 37° C. in a humidified atmosphere containing 5% CO2 until maximum CPE (cytopathic effect) is observed in the untreated virus control cultures (Day 5).
CPE inhibition is determined by a dye (MTS) uptake procedure (Promega's Cell Titer Aqueous One Solution). This method measures cell viability and is based on the reduction of the tetrazolium-based MTS by mitochondrial enzymes of viable host cells to MTS formazan. MTS (10 μl) is added to each of the plate wells. The plates are incubated at 37° C. for 4 hours. The purple color of the MTS formazan is then measured spectrophotometrically at 490/650 nm. The optical density (OD) value of each culture is a function of the amount of formazan produced which is proportional to the number of viable cells.
The percent of CPE (cytopathic effect) reduction of the virus-infected wells (antiviral efficacy) and the percent cell viability of uninfected drug control wells (cytotoxicity) are calculated. […]

[1] = Human alphaherpesvirus 1, 120 h, Vero cells (ATCC CCL-81), virus ATCC VR-260, about 0.05 PFU per cell, Day 5, MTS

Structure (SMILES) | IC50 [1] | IC50 (Human alphaherpesvirus 1, Vero, 120 h)
O=C(/C=C/c1ccc(O)c(O)c1)c1ccc(O)cc1O [2′,3,4,4′-Tetrahydroxychalcone] | 26.6 µM | 
COc1ccc(/C=C/C(=O)c2ccc(O)cc2O)cc1OC [2′,4′-Dihydroxy-3,4-dimethoxychalcone] |  | 8.36 µM
COc1ccc(/C=C/C(=O)c2ccc(O)cc2O)cc1 [2′,4′-Dihydroxy-4-methoxychalcone] | 11.1 µM | 
O=C1/C(=C/c2ccc(O)c(O)c2)Oc2cc(O)ccc21 [(Z)-2-(3,4-Dihydroxybenzylidene)-6-hydroxybenzofuran-3(2H)-one, reference compound] | > 100 µM | 
